Experimental data published in paper PMC9257752, “Intestinal Absorption of FITC-Dextrans and Macromolecular Model Drugs in the Rat Intestinal Instillation Model” (Molecular Pharmaceutics, 2022).
Numbered stars: 1 amine (or outer) side, 2 acyl side, 3 side chain; on linkers, the order of the positions; unused ones are H or OH. Square brackets hold non-standard residues; d marks the D form. Side chains are listed from the residue outwards. Peptide text beside a SMILES is read from it. * marks the point of attachment. γGlu = O=C(O)[C@H](CCC(=O)[*:2])N[*:1]; αMeF = C[C@](N)(Cc1ccccc1)C(=O)O; αMeK = C[C@](N)(CCCCN)C(=O)O; Lauroyl = CCCCCCCCCCCC(=O)*; αMeS = C[C@](N)(CO)C(=O)O; AEEA = NCCOCCOCC(=O)O; Aib = CC(C)(N)C(=O)O

Assays:
[1] = dogs; cited from earlier work
Text: MEDI7219 is a glucagon-like peptide 1 (GLP-1) receptor agonist drug candidate developed by AstraZeneca.[10] The peptide was designed for oral delivery and has natural amino acid and α-methyl amino acid substitutions to protect against peptidasesin the gastrointestinal tract. The peptide backbone has two lipid side chains that can bind to plasma proteins, thereby prolonging the circulation half-life of the peptide. […] The calculated pI is 3.8, giving the peptide a charge of −6.2 at pH 7.4. The molecular weight of MEDI7219 is 4353, ...

[2] = Rat intestinal instillation model (intraduodenal administration, plasma pharmacokinetics, deconvolution); settings: for Proportion of total absorption (120 min) occurring in interval 0–20 min / Proportion of total absorption (120 min) occurring in interval 20–40 min / Proportion of total absorption (120 min) occurring in interval 40–60 min / Proportion of total absorption (120 min) occurring in interval 60–80 min / Proportion of total absorption (120 min) occurring in interval 80–100 min / Proportion of total absorption (120 min) occurring in interval 100–120 min: average ± SD; for Cmax / Tmax: male, Wistar Han, rat, plasma; for Cmax: pH 6.5, Cmax, MEDI7219 1.0 mg, PEP12210 5.0 mg, mean ± SD (CV%); for Tmax: pH 6.5, Tmax
Description: Blank FaSSIF was prepared by dissolving 2.22 g of maleic acid, 1.39 g of sodium hydroxide, and 4.01 g of sodium chloride in Milli-Q water and adjusting the pH to 6.5 and volume to 1000 mL. C10 solutions were prepared at 50 or 300 mM C10 in blank FaSSIF and pH-adjusted to 6.5 by the addition of 2 M HCl. Blank FaSSIF solutions containing 0–300 mM C10 were stored at room temperature (RT) and used within 30 days. The model compounds were dissolved in blank FaSSIF with or without C10 the day before the absorption study and stored at +4 °C overnight. […] All IV formulations were sterile filtered into autoclaved injection vials and stored at +4 °C.
Upon arrival at the animal facility, the rats underwent an acclimatization period of 5 days with food and water ad libitum.
Briefly, anesthesia was induced with isoflurane after which the animal was moved to a preheated preparatory table. Fur was shaved from the throat to the lower abdomen and the shaved area was disinfected with a medicinal sponge containing chlorhexidine. The rat was draped in plastic foil and transferred to a preheated operating table where anesthesia was continued throughout the entire study using 3% isoflurane carried in an air/oxygen mixture. A polyurethane catheter was placed in the left carotid artery to allow for blood sampling, as well as blood pressure and heart rate monitoring. A midline incision was made in the abdomen, the duodenum was located and a catheter was placed in the common bile duct to avoid bile secretion into the duodenum. […] The stomach was punctured approximately 1 cm proximal to the pyloric sphincter with a 20G needle. A soft polyurethane catheter with a rounded tip was inserted into the small intestine via the gastric incision so that the tip of the catheter was positioned approximately 4 cm distal to the pylorus. The intestinal catheter was secured to the stomach with a suture and a ligature was placed at the pylorus to prevent backflow of formulation into the stomach and transit of gastric content into the duodenum. A thermometer was placed in the abdominal cavity and the abdomen was closed with stitches. A heating lamp coupled to the thermometer via a thermostat maintained the animal at 37 °C. The surgery was followed by a 30 min recovery period to allow the animal to regain normal temperature and blood pressure.
The liquid formulations were equilibrated to room temperature under magnetic stirring for 2 h prior to administration. Intestinal bolus administrations were performed over approximately 5 s via the intestinal catheter. […] The C10 doses were 7.8 mg for administrations with 50 mM C10 and 47 mg for 300 mM C10. Five to six replicates were performed for each administration group. […] Blood plasma was separated by immediately centrifuging the blood samples at +4 °C and 10 000g for 4 min. Plasma samples were transferred to new tubes and stored at −80 °C until analysis.
The animals receiving IV administration were handled and prepared in the same way as the animals receiving intestinal administration up until the placement of the carotid catheter. As no abdominal surgery was performed, a thermometer was introduced rectally.

pancreatin = system: pancreatin; parameters: method as in PMID 34795324; settings: simulated intestinal fluid containing pancreatin, over a 60 min period; cited from earlier work
[3] = 0 mM C10, numerical deconvolution, n = 5–6 (PEP12210 n = 2)
[4] = 50 mM C10, numerical deconvolution, n = 5–6
[5] = 300 mM C10, numerical deconvolution, n = 5–6

CCCCCCCCCCCC(=O)N[C@@H](CCC(=O)NCCOCCOCC(=O)NCCOCCOCC(=O)NCCCC[C@H](NC(=O)[C@H](C)NC(=O)[C@@H](NC(=O)[C@](C)(Cc1ccccc1)NC(=O)[C@H](CCC(=O)O)NC(=O)[C@](C)(CCCCN)NC(=O)[C@H](C)NC(=O)[C@H](C)NC(=O)[C@H](CCC(=O)O)NC(=O)CNC(=O)[C@H](CCC(=O)O)NC(=O)[C@H](CC(C)C)NC(=O)[C@H](CCCCNC(=O)COCCOCCNC(=O)COCCOCCNC(=O)CC[C@H](NC(=O)CCCCCCCCCCC)C(=O)O)NC(=O)[C@H](CO)NC(=O)[C@](C)(CO)NC(=O)[C@@H](NC(=O)[C@H](CC(=O)O)NC(=O)[C@H](CO)NC(=O)[C@@H](NC(=O)[C@](C)(Cc1ccccc1)NC(=O)[C@H](CO)NC(=O)CNC(=O)[C@H](CCC(=O)O)NC(=O)C(C)(C)NC(=O)[C@@H](N)Cc1c[nH]cn1)[C@@H](C)O)C(C)C)[C@@H](C)CC)C(=O)N[C@H](C(=O)N[C@H](C(=O)N[C@@H](CCC(=O)O)C(=O)NCC(=O)NCC(N)=O)C(C)C)C(C)C)C(=O)O [MEDI7219] (H-H[Aib]EGS[αMeF]TSDV[αMeS]SK([AEEA-AEEA-γGlu-Lauroyl])LEGEAA[αMeK]E[αMeF]IAK([AEEA-AEEA-γGlu-Lauroyl])VVEGG-NH2)
Half-life following oral administration [1]: 9.8 h
Proportion of total absorption (120 min) occurring in interval 0–20 min [2, 3]: 11% ± 2.8%
Proportion of total absorption (120 min) occurring in interval 20–40 min [2, 3]: 12% ± 2.9%
Proportion of total absorption (120 min) occurring in interval 40–60 min [2, 3]: 22% ± 2.5%
Proportion of total absorption (120 min) occurring in interval 60–80 min [2, 3]: 15% ± 1.2%
Proportion of total absorption (120 min) occurring in interval 80–100 min [2, 3]: 18% ± 2.5%
Proportion of total absorption (120 min) occurring in interval 100–120 min [2, 3]: 22% ± 4.9%
Proportion of total absorption (120 min) occurring in interval 0–20 min [2, 4]: 72% ± 3.6%
Proportion of total absorption (120 min) occurring in interval 20–40 min [2, 4]: 16% ± 2.6%
Proportion of total absorption (120 min) occurring in interval 40–60 min [2, 4]: 4.5% ± 1.7%
Proportion of total absorption (120 min) occurring in interval 60–80 min [2, 4]: 1.8% ± 5.5%
Proportion of total absorption (120 min) occurring in interval 80–100 min [2, 4]: 2.1% ± 2.6%
Proportion of total absorption (120 min) occurring in interval 100–120 min [2, 4]: 3.6% ± 4.2%
Proportion of total absorption (120 min) occurring in interval 0–20 min [2, 5]: 25% ± 5.1%
Proportion of total absorption (120 min) occurring in interval 20–40 min [2, 5]: 20% ± 2.6%
Proportion of total absorption (120 min) occurring in interval 40–60 min [2, 5]: 24% ± 2.3%
Proportion of total absorption (120 min) occurring in interval 60–80 min [2, 5]: 13% ± 3.5%
Proportion of total absorption (120 min) occurring in interval 80–100 min [2, 5]: 10% ± 3.1%
Proportion of total absorption (120 min) occurring in interval 100–120 min [2, 5]: 7.8% ± 4.0%
Cmax ([2]; 50 mM C10, blank FaSSIF pH 6.5, dose FD10 10 mg, n = 5–6): 440 nM
Cmax ([2]; 300 mM C10, blank FaSSIF pH 6.5, dose FD10 10 mg, n = 5–6): 1400 nM
Tmax ([2]; 0 mM C10, blank FaSSIF pH 6.5, median (min–max), n = 5–6 (PEP12210 n = 2)): 2 h
Tmax ([2]; 50 mM C10, blank FaSSIF pH 6.5, median (min–max), n = 5–6): 0.333 h
Tmax ([2]; 300 mM C10, blank FaSSIF pH 6.5, median (min–max), n = 5–6): 1.5 h
Proportion of peptide remaining intact (pancreatin): 90%
